In US9776965B2, “Pyrrolidin-2-one and piperidin-2-one derivatives as 11-beta hydroxysteroid dehydrogenase inhibitors” (Janssen Pharmaceutica N.V., priority 2004, dated 2017):

Columns and labels:
11b-HSD2 [1] = target: T1, 11b-HSD2 (Homo sapiens, UniProt P80365); test: Enzymatic assay, 11b-HSD2 dependent dehydrogenase activity; type: biochemical; conditions: recombinant protein, 100 nM cortisol, 45 min at 37 C; read-out: [C1] HSD2 prot Dehydro Score
T1 sequence (P80365 1-405): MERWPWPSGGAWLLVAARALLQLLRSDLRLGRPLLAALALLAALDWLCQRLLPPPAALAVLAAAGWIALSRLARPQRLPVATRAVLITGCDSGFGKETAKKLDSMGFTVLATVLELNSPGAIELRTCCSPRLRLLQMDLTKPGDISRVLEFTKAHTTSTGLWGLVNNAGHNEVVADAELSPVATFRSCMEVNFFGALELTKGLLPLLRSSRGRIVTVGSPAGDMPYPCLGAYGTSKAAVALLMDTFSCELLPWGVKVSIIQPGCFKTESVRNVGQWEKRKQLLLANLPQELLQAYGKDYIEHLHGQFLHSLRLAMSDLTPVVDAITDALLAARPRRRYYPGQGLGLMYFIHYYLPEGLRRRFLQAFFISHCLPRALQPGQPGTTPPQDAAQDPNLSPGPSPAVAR
Method: The effects on the 11b-HSD2 dependent dehydrogenase activity was studied in a reaction mixture containing 0.1M sodium phosphate buffer pH 7.5, 300 μM NAD, 100 nM cortisol (of which 2 nM is 3H-radio labelled), 1 μl drug and/or solvent and 2.5 μg recombinant protein in a final volume of 100 μl.
All incubations were performed for 45 min at 37 C in a water bath. The reaction was stopped by adding 100 μl acetonitrile containing 20 μg corticosterone as internal standard. After centrifugation, the product formation was analysed in the supernatant by HPLC on a Hypersyl BDS-C18 column using 0.05 mM ammonium acetate/methanol (50/50) as solvent. In all of the aforementioned assays, the drugs to be tested were taken from a stock solution and tested at a final concentration ranging from […] to 3.10^−9M. From the thus obtained dose response curves, the pIC50 value was calculated and scored as follows; Score 1=pIC50 value<5, Score 2=pIC50 value in the range of 5 to 6, Score 3=pIC50 value>6. (in this table NT stands for Not Tested).

11b-HSD1 [2] = target: 11b-HSD1 (Homo sapiens, UniProt P28845); test: Enzymatic assay, 11b-HSD1 dependent conversion of cortisone into cortisol (reductase activity); type: biochemical; conditions: recombinant protein, 2 μM cortisone, 45 min at 37 C; read-out: [C1] HSD1-prot Reduct Score
11b-HSD1 (Homo sapiens, UniProt P28845), sequence (P28845 whole entry): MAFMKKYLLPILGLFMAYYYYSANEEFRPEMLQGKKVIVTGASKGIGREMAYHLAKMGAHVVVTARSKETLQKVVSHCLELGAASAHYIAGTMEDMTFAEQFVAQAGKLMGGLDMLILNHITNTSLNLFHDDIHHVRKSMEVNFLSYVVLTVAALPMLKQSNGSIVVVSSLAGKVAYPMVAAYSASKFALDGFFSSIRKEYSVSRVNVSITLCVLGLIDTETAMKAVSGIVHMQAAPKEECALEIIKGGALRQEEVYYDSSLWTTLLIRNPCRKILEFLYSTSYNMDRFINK
Outline: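 Recombinant human 11b-HSD1 (11 µg) with 2 µM cortisone and 180 µM NADPH in 30 mM Tris-HCl pH 7.2, 1 mM EDTA, incubated 45 min at 37 °C. Cortisol formation was measured by HPLC with a corticosterone internal standard. Compounds were tested from 10^−5 M to 3.10^−9 M, and pIC50 was scored as 1 (<5), 2 (5–6) or 3 (>6).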

11b-HSD2 [3] = target: T1, 11b-HSD2; test: Cellular assay, 11b-HSD2 activity in HepG2 cells; type: cell-based; parameters: endogenous in cells; host or cells: HepG2 (ATCC HB-8065); conditions: 4 hour pre-incubation, read-out: [C2] HSD2 cellular HepG2 Score
Method: The effects on 11b-HSD2 activity was studied in HepG2 and LCC-PK1-cells HepG2-cells (ATCC HB-8065) were seeded in 12 well plates at a density of 100,000 cells/ml and grown at 37 C in a humidified 5% CO2 atmosphere in MEM-Rega-3 medium supplemented with 10% heat inactivated foetal calf serum, 2 mM L-glutamine and sodium bicarbonate). Medium was refreshed twice a week.
Following a 4 hour pre-incubation with test compound, 0.5 μCi ^3H-cortisol or corticosterone, was added to the cultures. One hour later, the medium was extracted on Extrelut^3-columns with 15 ml diethyl ether and the extract was analysed by HPLC as described above.
As for the enzymatic assays, the compounds to be tested were taken from a stock solution and tested at a final concentration ranging from […] to 3.10^−9M. From the thus obtained dose response curves, the pIC50 value was calculated and scored as follows; Score 1=pIC50 value<5, Score 2=pIC50 value in the range of 5 to 6, Score 3=pIC50 value>6. Some of the thus obtained results are summarized in the table below (in this table NT stands for Not Tested).

11b-HSD1 [4] = target: T2, 11b-HSD1 (Mus musculus, UniProt P50172); test: Cellular assay, 11b-HSD1 activity in differentiated 3T3-L1 cells; type: cell-based; conditions: 4 hour pre-incubation, read-out: [C2] HSD1 cellular 3T3-L1 Score
T2 construct: Fibroblasts were differentiated into adipocytes; endogenous in cells; host or cells: differentiated 3T3-L1 cells (ATCC-CL-173)
T2 sequence (P50172 whole entry): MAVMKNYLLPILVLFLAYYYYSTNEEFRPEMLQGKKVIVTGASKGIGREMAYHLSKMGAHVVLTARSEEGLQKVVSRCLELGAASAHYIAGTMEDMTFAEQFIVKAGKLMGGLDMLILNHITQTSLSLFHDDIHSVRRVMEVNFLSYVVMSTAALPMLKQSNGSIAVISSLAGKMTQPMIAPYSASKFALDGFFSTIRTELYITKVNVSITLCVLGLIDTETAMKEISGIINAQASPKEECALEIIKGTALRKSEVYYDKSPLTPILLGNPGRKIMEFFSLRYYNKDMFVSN
Outline: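 Differentiated mouse 3T3-L1 adipocytes pre-incubated 4 hours with compound (final 3.10^−9 to 10^−5 M), then 0.5 μCi ³H-cortisone or dehydrocorticosterone added for one hour. Medium extracted with diethyl ether and steroids resolved by HPLC; pIC50 from dose-response curves, reported as scores.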

| SMILES | IC50 (11b-HSD2 [1]) [µM] | IC50 (11b-HSD1 [2]) [µM] | IC50 (11b-HSD2 [3]) [µM] | IC50 (11b-HSD1 [4]) [µM] | melting point [°C] |
| --- | --- | --- | --- | --- | --- |
| C[C@@H](c1ccccc1)N1CC[C@@H](Cc2c(Cl)cccc2Cl)C1=O [Compound 14] | > 10 | < 1 | > 10 | < 1 | 75 to 76 |
| Cc1ccccc1C(C)[C@H]1CCN([C@@H](C)c2ccccc2)C1=O (some centres unmarked) [Compound 163] | 1 to 10 | < 1 | > 10 | < 1 |  |
| C[C@H](c1ccccc1)N1CC[C@H](Cc2ccccc2Cl)C1=O [Compound 41] | > 10 | 1 to 10 | > 10 | < 1 |  |
| Cc1ccc(C[C@@H]2CCN([C@H](C)c3ccccc3)C2=O)cc1 [Compound 27] | > 10 | > 10 | > 10 | < 1 |  |
| COc1ccc(C[C@@H]2CCN([C@@H](C)c3ccccc3)C2=O)c(Cl)c1OC [Compound 119] | 1 to 10 | < 1 | > 10 | < 1 |  |
| O=C1C(Cc2ccccc2Cl)CCN1CCc1ccccc1 (centres unmarked) [Compound 30] | > 10 | < 1 | > 10 | < 1 |  |
| COc1ccc(C[C@H]2CCN([C@H](C)c3ccccc3)C2=O)cc1 [Compound 65] | > 10 | > 10 | > 10 | < 1 |  |
